How the values were obtained:
[1] = system: Epstein-Barr virus (EBV) Akata strain; assay: EBV secondary assay, qPCR of viral DNA in induced Akata cells; assay type: cell-based
Protocol: (§1) EBV Akata strain was assayed in Akata cells (John Sixbey, LSU) latently infected with EBV (and therefore oncogenic). Cells were maintained in RPMI 1640, (Mediatech) with 10% FBS (Hyclone), L-glutamine, penicillin and gentamicin.
Secondary assay for EBV were performed in Akata cells that were induced to undergo a lytic infection with 50μg/ml of a goat anti-human IgG antibody by methods we reported previously. Experimental compounds were diluted in round bottom 96-well plates to yield concentrations ranging from 0.0032–100μM. Akata cells were added to the plates at a concentration of 4×10^4 cells per well and […]. Assay plates were incubated for seven days at 37°C. For all assays, the replication of the virus was assessed by the quantification of viral DNA. For primer sequences, please see S1 Table. EBV DNA was purified according to manufacturer’s instructions (Wizard SV 96 Genomic DNA Purification System). The purified DNA was then subjected to qPCR that amplified a fragment corresponding to nucleotides 96802–97234 in the EBV genome (AJ507799). Plasmid pMP218 containing a DNA sequences corresponding to nucleotides 14120–14182 (AF148805.2) was used to provide absolute quantification of viral DNA. Compound concentrations sufficient to reduce genome copy number by 50% were calculated from experimental data.

[2] = system: Epstein-Barr virus (EBV) Akata strain; assay: EBV primary assay, DNA hybridization in induced Akata cells; assay type: cell-based
Protocol: as §1
For Primary assay, Akata cells latently infected with EBV were induced to undergo lytic infection by addition of 50μg/ml of a goat anti-human IgG [16] and a dose-range of verdinexor (0.032 to 100 μM) was added for 72hr. Denaturation buffer was added and an aliquot aspirated through an Immobilon nylon membrane (Millipore, Bedford, MA). Dried membranes were equilibrated in DIG Easy Hyb solution (Roche Diagnostics, Indianapolis, IN) at 56°C. Specific DIG-labeled probes for EBV (S1 Table). (Roche Diagnostics). Membranes with EBV DNA were hybridized overnight followed by washes in 0.2× SSC and 0.1× SSC both with 0.1% SDS. Detection of specifically bound DIG probe was performed with anti-DIG antibody (Roche Diagnostics). An image of the photographic film was captured and quantified with QuantityOne software (Bio-Rad), and the EC50 were interpolated.

[3] = system: JC polyoma virus MAD-4 strain; assay: microbe, parasite or virus in culture; assay type: cell-based; conditions: Polyomavirus sp., COS-7, JCPyV, primary screen, COS-7 cells
Protocol: (§2) John Cunningham polyomavirus (JCPyV) strains MAD-1 and MAD-4 and BK polyomavirus (BKPyV) Gardner strain were obtained from ATCC. COS-7 cells were obtained from ATCC and maintained according to ATCC-supplied protocols.
Cytotoxicity assay was performed in a manner analogous to KSHV above. Evaluation of compounds against JCPyV virus was done in COS7 cells with the plasmid pMP508 to provide a standard curve for quantification.
Viral DNA was quantified (S1 Table) together with the plasmid pMP508 to provide a standard curve for absolute quantification. Secondary assays against JCV were also performed in COS7 cells by methods similar to those for BK virus to identify if verdinexor inhibited adsorption or entry of the virus.

[4] = system: HPV-11; assay: HPV-11 transient origin-plasmid replication assay in HEK293 cells (qPCR); assay type: cell-based, human papillomavirus
Protocol: HPV-11 and -18 were tested in HEK293 cells and primary human keratinocytes (PHK), respectively. PHKs were isolated from neonatal foreskins following circumcision according to IRB-approved protocols at UAB. They were grown in keratinocyte serum-free medium (Life Technologies) with mitomycin C-treated J2 feeder cells (Swiss 3T3 J2 fibroblasts; Elaine Fuchs, Rockefeller University). HEK 293 cells were maintained under standard conditions.
Quantification of virus was determined via transient replication of an HPV-11 replication origin-containing plasmid in HEK293 cells co-transfected with an HPV-11 replicative DNA helicase E1 and origin binding E2 protein [20]. 293 cells were cultured with test compounds added 4hr post-transfection for 2 days. Low molecular weight DNA was isolated, digested with Dpn1 and exonuclease III to eliminate unreplicated DNA. The Dpn1-resistant DNA was then subjected to qPCR analyses amplifying a small portion of the replication origin [20]. In a negative control, the E1 expression vector was omitted or cultures were treated with the inhibitor cidofovir.

[5] = system: BK polyomavirus (BKPyV) Gardner strain; assay: BKPyV qPCR genome copy assay in HFF cells; assay type: cell-based; conditions: Betapolyomavirus hominis
Protocol: as §2
Primary assays for BKPyV were performed in 384-well plates containing monolayers of HFF cells. Compound dilutions ranging from 0.0032–100μM were prepared in plates containing cells which were subsequently infected at an MOI of 0.001. After a 7d incubation, total DNA was prepared using Extracta and genome copy number was quantified by qPCR using the primers and probe listed in S1 Table [18]. Plasmid pMP526 served as the DNA standard for quantification purposes. Compounds were confirmed in a similar assay in 96-well plates according to established laboratory protocols with the compounds added 1h […] to identify compounds that inhibit early stages of replication including adsorption and entry. Genome copy number was determined by methods described above.

[6] = system: KSHV strain BCBL-1; assay: KSHV qPCR of viral DNA in PMA-induced BCBL-1 cells; assay type: cell-based, Kaposi's sarcoma-associated herpesvirus; conditions: Human gammaherpesvirus 8, BCBL1, KSHV
Protocol: KSHV strain BCBL-1 was obtained as latently infected BCBL-1 cells through the NIH AIDS Research and Reference Reagent Program. BCBL-1 cells were maintained in growth medium consisting of RPMI 1640 supplemented with 10% FBS, penicillin, gentamicin, and l-glutamine.
To quantify virus, compound was diluted from 0.008–100μM and added to BCBL-1 cells induced to undergo a lytic infection by the addition of 100ng/ml phorbol 12-myristate 13-acetate (PMA) (Promega). After 7d, total DNA was prepared, and viral DNA was quantified by qPCR (see S1 Table for primer/probe sequences). Plasmid pMP218 containing a DNA sequence corresponding to nucleotides 14120–14182 (AF148805.2) was used to provide absolute quantification of viral DNA and EC50 [11].

[7] = system: Human CMV strain AD169; assay: HCMV yield reduction assay in HFF cells; assay type: cell-based, human cytomegalovirus; conditions: Human betaherpesvirus 5, AD169, HFF
Protocol: Human CMV strain AD169 was obtained from ATCC and assayed in human foreskin fibroblast cells (HFF). HFF cells were prepared at the University of Alabama at Birmingham (UAB) tissue procurement facility with IRB approval as previously described. Yield reduction assays for HCMV were performed on monolayers of HFF cells prepared in 96-well plates and incubated at 37°C for 1d to allow the cells to reach confluency. Media was then aspirated from the wells were infected at a high multiplicity of infection (MOI). At 1h following infection, the inocula were removed and the monolayers rinsed with fresh media. Compounds were then diluted in assay media consisting of MEM with Earl’s salts supplemented with 2% FBS, L-glutamine, penicillin, and gentamycin. Solutions ranging from 0.0032–10μM in primary assay and 0.032–100μM in secondary assay were added to the wells and the plates were incubated for various times, depending on the virus used and represents the length of a single replication cycle for the virus. A duplicate set of dilutions were also performed but remained uninfected to serve as a cytotoxicity control and received equal compound exposure. Supernatants from each of the infected wells were subsequently titered in a TCID50 assay to quantify the progeny virus.

[8] = human gammaherpesvirus 4, Akata

Nc1nc2c(ncn2COCCO)c(=O)[nH]1 [acyclovir, reference compound]
SI (Selectivity Index, CC50/EC50) ([1]; EBV, secondary screen, qPCR): > 13 | EC50 [1, 8]: 7.9 µM | SI (Selectivity Index, CC50/EC50) ([2]; EBV, primary screen, DNA hybridization): > 7 | EC50 [2, 8]: 15 µM

Nc1ccn(C[C@@H](CO)OCP(=O)(O)O)c(=O)n1 [cidofovir, reference compound]
EC50 [3]: 3.86 µM | EC50 ([4]; Human papillomavirus, HPV-11, primary screen): 148 µM | efficacy against HPV-11 ([4]; primary screen, qPCR): did not show efficacy | EC50 ([5]; primary screen): 4.48 µM | EC50 ([5]; secondary screen, compound added 1h post-infection): 2.06 µM | EC50 ([6]; primary screen): < 0.48 µM | EC50 ([6]; secondary screen): 1.68 µM

Nc1nc(O)c2ncn(COC(CO)CO)c2n1 [ganciclovir, reference compound]
EC50 ([7]; primary screen): 0.51 µM | EC50 ([7]; secondary screen): 4 µM

Reference: publication PMC6192554, “In vitro toxicity and efficacy of verdinexor, an exportin 1 inhibitor, on opportunistic viruses affecting immunocompromised individuals” (PLoS ONE, 2018)
